One data set deals with sperm cells. Put plainly: Toxicity of SYBR-14 staining to sperm cells (decrease in live sperm cells over time). The class given is cell-based.
The subject of another data set is bull sperm. Put plainly: Flow cytometric (FACSCount) determination of sperm viability over staining time in bull ejaculates. The following applies: FACSCount blue laser (488 nm); SYBR-14 50 nM with PI 12 μM; replicates at 4 and 6 min staining, room temperature. The data set is classed as cell-based. On the procedure:
A two-step dilution is necessary for the flow cytometric analyses. First, the sample is diluted 250× in a PBS medium containing 0.1% BSA, (NUNC Intermed Cat# 3478880, Lifetechnologies, Roskilde, Denmark), and second a 20 μl sample is transferred to a Sperm Count tube containing approximately 100,000 beads using reverse manual pipetting. The dyes were added to the Sperm Count tubes less than 12 hours before using the tubes in the analysing procedure. As mentioned above, two different flow cytometers were used, one being a FACSCount equipped with a green (543 nm) laser and the second being a FACSCount equipped with a blue (488 nm) laser.
To each Sperm Count tube to be analysed in the first FACSCount (543 nm), 2 μl of MPR71292 and 2 μl of EHD-2 were added to provide final concentrations of 100 nM and 5 μM, respectively.
To each Sperm Count tube to be analysed in the second FACSCount (488 nm), 5 μl of SYBR-14 and 5 μl of PI were added to provide for final concentrations of 50 nM and 12 μM, respectively.
Prior to opening the Sperm Count tubes, the tubes were whirlmixed for 3 sec in an upside-down position and for 3 sec in a normal position. Whirlmixing were repeated for two sec after addition of the sperm and before each analysis. […] After 4 min, the first replicates were analysed simultaneously on the two flow cytometers and the second replicates were analysed after a 6 min staining period. […]

With SYBR-14, the “decrease in the amount of live sperm cells” value in the data set on sperm cells (SYBR-14 below standard concentrations (25 to 75 nanomolar, about 50 nanomolar)) was “no decrease”; with sperm cells (SYBR-14 concentration of 100 nM) it was 0.6 % pr minute. Moreover, the toxicity to spermatozoa entry with sperm cells (standard concentrations (100 nM), staining time 10 to 15 minutes) was “slightly toxic”. Moreover, the “decrease in sperm viability over time” value in the data set with bull sperm is −0.15±0.07 %/min.
